Measured values from patent US20140378378A1, “ERYTHROPOIETIN-DERIVED PEPTIDE AND USE THEREFOR” (priority 2011, published 2014).

System: cardiomyocytes
Assay: Cell survival of cardiomyocytes, MTT assay, 72 hours in PBS free of serum and nutrients, hypoxic condition
Assay type: cell-based, Wister rat
Conditions: 0 nM = 100%
Description: An 8 weeks old Wister rat was injected with ketamine and pentobarbital to quickly kill the […], and the heart was quickly separated from the mouse. An aorta was used to perfuse with Ca free Krebs-Henseleit buffer (KHB) solution, which was pre-heated to a temperature of about 34° C. to about 37° C., in heart direction. Thereafter, the KHB solution was switched to Hank's balanced salt solution (HBSS:GIBCO, Grand Island, N.Y.) containing 0.15% class II collagenase (Cooper Biomedical, Malvern, Pa.) and then perfused for about 30 to about 40 minutes. Thereafter, the product obtained therefrom was washed twice with a cell culture medium (Dulbecco's modified Eagle's medium, DMEM). Ventricles and atria were separated therefrom, ventricular tissues were thoroughly chopped and then stirred thoroughly for about 5 minutes in a shaker filled with cell culture medium (DMEM) containing class II collagenase that was pre-heated to a temperature of about 34° C. to about 37° C. Connective tissues that were not dissolved were filtered and a collagenase-containing solution was washed twice with the cell culture medium (DMEM). The product obtained therefrom was gently centrifuged at a speed of 10 g for 2 minutes, a supernatant obtained therefrom was separated and removed, and cell components were washed three times with a cell culture medium (DMEM) solution containing 1% fetal bovine serum (FBS; Sigma Chemical, St. Louis, Mo.). Thereafter, the cells obtained therefrom were stabilized in a cell culture medium (DMEM), 10% FBS, 10 mM N-2-hydroxyethylpiperazine-N′-2-ethanesulfonic acid (HEPES, GIBCO Laboratories, Grand Island, N.Y.), 2 mM L-glutamine, penicilin-stereptomycin (100 IU/mL, GIBCO) for 60 minutes.
Thereafter, the cells were divided in a 6-well plate at a density of 20×10^3 cells/cm^2 and then bromodeoxyuridine (BrdU, 10 uM, Sigma-Aldrich) was added to the cell culture medium over 3 days to prevent the proliferation of fibroblasts and progenitor cells (Lokuta et al, 1994; Miragoli et al., 2006). The cells were cultured in an incubator under conditions of 95% of O2, 5% of CO2, and a temperature of 37° C. for the next experiment.
Cells were seeded in a 96-well plate at a density of 2×10^4 cells/well and 200 ul for each well. In this regard, cell confluence was set at about 70% to about 80%. After 24 hours, when the cells have been stabilized, a 26 gauge or 28 gauge needle was used to remove a preexisting medium from the wells. 200 ul of PBS free of serum and nutrients was added to each well, the wells were divided into erythropoietin (EPO) treatment groups and MKX-2 treatment groups, which were further divided into experimental groups according to concentrations of 0 nM, 0.1 nM, 1 nM, 10 nM, 100 nM, and 1000 nM and then treated with a drug for 72 hours in a hypoxic condition, and then the cells were subjected to an MTT assay to compare cell survival rates. The EPO used was an Eporon injection (Dong-A Pharmaceuticals, Korea). All experimental groups for each concentration included 7 wells.
After a predetermined treatment time, 3-[4,5-dimethylthiazol-2-yl]-2,5-diphenyl tetrazolium bromide (MIT, Sigma, M2128) that was dissolved in a phosphate buffered saline (PBS) and then sterilization filtered by using a membrane filter having a thickness of 0.22 um was added to each well in an amount of 100 ul at a concentration of 1 mg/ml. In this regard, an MTT reagent was used after wrapping the MTT reagent with a foil sheet to block from light. […]

With “EPO: erythropoietin; the EPO used was an Eporon injection (Dong-A Pharmaceuticals, Korea)” the “cell survival rate compared with 0 nM” value (0.1 nM) was “not substantially different”, the “cell survival rate compared with the initial condition” value (1 nM) was “substantially decreased” and the cell survival rate (10 nM) was 94.52 ± 4.36%. The cell survival rate (100 nM) was 102.64 ± 2.69% and the cell survival rate (1000 nM) was 106.97 ± 1.99%.
